Measurements as given in patent publication US9193736B2, “PDE 10a inhibitors for the treatment of type II diabetes” (Janssen Pharmaceutica, NV, priority 2013, dated 2015).

Key:
[1] = target: Human recombinant PDE10A2 (Homo sapiens (Human), UniProt Q9Y233); assay: In vitro hPDE10a: human recombinant PDE10A2 scintillation proximity assay, IC50; assay type: biochemical; details: human recombinant PDE10A2, SPA, 60 nM cAMP; read-out: hPDE10a2 IC50
Procedure, shortened: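 Purified recombinant human PDE10A2 (Ni-sepharose) was assayed by SPA, counting [3H]-AMP product captured on yttrium silicate beads added in zinc sulphate stop solution. Inhibition was expressed as % of activity without compound, with a no-enzyme low control. Repeat data points were aggregated.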

[2] = target: Rat recombinant PDE10a (rPDE10a) (Rattus norvegicus (Rat), UniProt Q9QYJ6); assay: In vitro assay PDE10a: rat recombinant PDE10a SPA with 3H-cAMP substrate, IC50; assay type: biochemical; details: 60 nM cAMP, read-out: rPDE10a2 IC50
Chain of Rat recombinant PDE10a (rPDE10a) (Q9QYJ6 whole entry): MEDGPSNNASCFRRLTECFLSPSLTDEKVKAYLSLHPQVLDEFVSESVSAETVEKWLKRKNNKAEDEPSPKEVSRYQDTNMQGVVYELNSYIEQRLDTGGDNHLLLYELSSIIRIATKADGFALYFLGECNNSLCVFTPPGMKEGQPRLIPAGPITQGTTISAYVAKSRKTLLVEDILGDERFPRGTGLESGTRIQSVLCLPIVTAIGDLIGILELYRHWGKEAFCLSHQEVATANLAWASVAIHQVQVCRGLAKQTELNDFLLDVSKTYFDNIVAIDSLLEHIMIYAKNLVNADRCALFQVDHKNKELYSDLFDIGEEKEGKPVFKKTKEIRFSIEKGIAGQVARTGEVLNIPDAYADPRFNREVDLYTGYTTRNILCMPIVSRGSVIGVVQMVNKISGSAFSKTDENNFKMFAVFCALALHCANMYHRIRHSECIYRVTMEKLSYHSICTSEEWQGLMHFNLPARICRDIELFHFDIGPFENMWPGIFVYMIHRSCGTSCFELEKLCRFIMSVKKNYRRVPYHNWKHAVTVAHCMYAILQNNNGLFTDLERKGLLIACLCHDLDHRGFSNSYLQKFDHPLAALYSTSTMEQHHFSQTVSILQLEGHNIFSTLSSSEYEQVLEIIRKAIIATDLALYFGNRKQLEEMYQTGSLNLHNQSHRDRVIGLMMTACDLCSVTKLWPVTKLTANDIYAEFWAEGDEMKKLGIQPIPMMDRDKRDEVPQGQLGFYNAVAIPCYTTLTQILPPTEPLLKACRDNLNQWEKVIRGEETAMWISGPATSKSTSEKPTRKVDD
Procedure, shortened: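 Enzyme expressed in Sf9 cells via baculovirus and Ni-sepharose purified; reaction with 3H-cAMP ran 60 min at rt, stopped with PDE SPA beads. Compounds diluted in DMSO at 100-fold final concentration; blanks omitted enzyme.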

[3] = PDE10a perfused brain permeability study: plasma concentrations at 30 and 120 min, brain concentration at 120 min, brain/plasma ratio; details: male, Sprague-Dawley, rat; for Kp at 2 h: brain/plasma
Experimental: PDE10a-Brain Permeability Assay
(§1) A. PDE10a-Perfused Brain Permeability Study Protocol
(§2) Drug administration by oral gavage, subcutaneous injection or intravenous was carried out using male Sprague Dawley rats under IACUC protocol (SH-MET3010). Male Sprague Dawley rats (Charles River) ˜300-350 g were maintained on a 4% standard rodent diet (Test Diet 5001). They are allowed ad libitum access to water and food. Room temperature was maintained at 64° F. and humidity at 30-70%.
(§3) Three animals per compound were provided a dose of 2 mg/mL in 20% HpbCD/Tris pH 8 by tail i.v. or 30 mpk p.o. or s.c. in 20% HpbCD/Tris pH 8, with PDE10a antagonists. A first blood sample was collected at 30 min via retro-orbital sinus (anesthetic by 70% CO2/30% O2) into heparinzed plasma separator tubes. The blood was centrifuged and 100 μL plasma was placed into a 96 well plate and saved on dry ice.
(§4) After the 120 min, the final blood sample was collected via retro-orbital sinus under anesthesia by IP 0.5 cc injection of a 4/1 mixture of Ketaset: AnaSed [(prepared 10 mL Ketaset (100 mg/mL Ketamine)+2.5 mL AnaSed (20 mg/mL Xylazine)]. The rats were then perfused with 400 mL heparinized saline (10,000 units/L) through the left ventricle of the heart; the brains were then removed (not including the medulla), weighed and homogenized in PBS (4 mL/g tissue). The samples were stored at −80° C. and submitted for chemical analysis of blood and brain concentrations. Endpoints of sample analysis consists of the plasma concentrations at 30 and 120 min, plus brain concentrations at 120 min.

[4] = rat, in vivo
Experimental: PDE10a-Brain Permeability Assay
as §1, §2, §3, §4

Chain of Human recombinant PDE10A2 (Q9Y233 267-1055): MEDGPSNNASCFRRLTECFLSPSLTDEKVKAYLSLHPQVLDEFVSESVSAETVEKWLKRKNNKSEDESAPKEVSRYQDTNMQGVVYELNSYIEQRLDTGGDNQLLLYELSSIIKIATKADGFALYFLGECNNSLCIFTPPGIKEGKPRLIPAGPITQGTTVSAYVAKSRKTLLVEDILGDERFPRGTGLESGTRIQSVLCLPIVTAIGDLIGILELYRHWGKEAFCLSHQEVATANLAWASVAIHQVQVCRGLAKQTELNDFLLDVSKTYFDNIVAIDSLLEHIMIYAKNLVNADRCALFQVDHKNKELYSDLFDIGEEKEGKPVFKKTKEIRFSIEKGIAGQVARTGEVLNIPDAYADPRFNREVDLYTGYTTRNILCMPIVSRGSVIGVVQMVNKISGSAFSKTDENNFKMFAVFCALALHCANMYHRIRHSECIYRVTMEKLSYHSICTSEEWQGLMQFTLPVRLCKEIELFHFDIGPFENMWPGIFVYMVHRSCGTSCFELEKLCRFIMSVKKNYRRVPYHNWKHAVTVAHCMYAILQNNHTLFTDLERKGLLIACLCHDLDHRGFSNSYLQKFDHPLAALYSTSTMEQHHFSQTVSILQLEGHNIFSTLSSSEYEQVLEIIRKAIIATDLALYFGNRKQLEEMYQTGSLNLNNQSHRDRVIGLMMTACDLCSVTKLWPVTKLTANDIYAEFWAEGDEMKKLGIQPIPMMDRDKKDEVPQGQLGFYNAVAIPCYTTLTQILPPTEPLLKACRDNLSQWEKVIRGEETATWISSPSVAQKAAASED

Row | IC50 [1] [nM] | IC50 [2] [nM] | concentration at 2 h ([3]; brain) [ng/g] | Kp at 2 h [3] | concentration at 2 h ([3]; plasma) [µg/mL] | Brain conc 2 h [4] [ng/g] | Plasma conc 2 h [4] [µg/mL] | Ratio Br/Pl Mean 2 h [4] | SMILES
1 | 1 | 1 | 0 | 0 | 0.038 | – | – | – | O=C(O)c1ccc(-c2c(CCc3ccc4ccccc4n3)nc3c(N4CCOCC4)ccnn23)cc1 [compound 41, 4-(8-Morpholino-2-(2-(quinolin-2-yl)ethyl)imidazo[1,2-b]pyridazin-3-yl)benzoic acid]
2 | 1 | 1 | 0 | 0 | 0.034 | – | – | – | CC(=O)NS(=O)(=O)c1ccc(-c2c(CCc3ccc4ccccc4n3)nc3c(N4CCOCC4)ccnn23)cc1 [compound 42, N-((4-(8-Morpholino-2-(2-(quinolin-2-yl)ethyl)imidazo[1,2-b]pyridazin-3-yl)phenyl)sulfonyl)acetamide]
3 | 2 | 1 | 0 | 0 | 0.0018 | – | – | – | CS(=O)(=O)NC(=O)c1ccc(-c2c(CCc3ccc4ccccc4n3)nc3c(N4CCOCC4)ccnn23)cc1 [compound 43, N-(Methylsulfonyl)-4-(8-morpholino-2-(2-(quinolin-2-yl)ethyl)imidazo[1,2-b]pyridazin-3-yl)benzamide]
4 | 4 | 1 | 0 | 0 | 0.083 | – | – | – | O=C(O)CCNC(=O)c1ccc(-c2c(/C=C/c3ccc4ccccc4n3)nc3c(N4CCOCC4)ccnn23)cc1 [compound 44, (E)-3-(4-(8-Morpholino-2-(2-(quinolin-2-yl)vinyl)imidazo[1,2-b]pyridazin-3-yl)benzamido)propanoic acid]
5 | 9 | 6 | 0 | 0 | 0.035 | – | – | – | O=C(O)CCC(=O)Nc1ccc(-c2c(/C=C/c3ccc4ccccc4n3)nc3c(N4CCOCC4)ccnn23)cc1 [compound 48, (E)-4-((4-(8-Morpholino-2-(2-(quinolin-2-yl)vinyl)imidazo[1,2-b]pyridazin-3-yl)phenyl)amino)-4-oxobutanoic acid]
6 | 52 | 41 | 54 | 0.16 | 0.326 | – | – | – | OC(c1ccc(-c2c(/C=C/c3ccc4ccccc4n3)nc3c(N4CCOCC4)ccnn23)cc1)(C(F)(F)F)C(F)(F)F [compound 52, (E)-1,1,1,3,3,3-Hexafluoro-2-(4-(8-morpholino-2-(2-(quinolin-2-yl)vinyl)imidazo[1,2-b]pyridazin-3-yl)phenyl)propan-2-ol]
7 | 22 | 5 | 16.9 | 0.02 | 0.725 | – | – | – | COc1cc(-c2c(/C=C/c3ccc4ccccc4n3)nc3c(N4CCOCC4)ccnn23)ccc1C(=O)O [compound 67, (E)-2-Methoxy-4-(8-morpholino-2-(2-(quinolin-2-yl)vinyl)imidazo[1,2-b]pyridazin-3-yl)benzoic acid]
8 | 1 | 1 | 0 | 0 | 0.205 | – | – | – | CS(=O)(=O)NC(=O)c1ccc(-c2c(C#Cc3ccc4ccccc4n3)nc3c(N4CCOCC4)ccnn23)cc1 [compound 83, N-(Methylsulfonyl)-4-(8-morpholino-2-(quinolin-2-ylethynyl)imidazo[1,2-b]pyridazin-3-yl)benzamide]
9 | 3 | 3 | 0 | 0 | 0.199 | – | – | – | O=C(O)c1ccc(-c2c(/C=C/c3ccc4ccccc4n3)nc3c(N4CCOCC4)ccnn23)cc1F [compound 103, (E)-2-Fluoro-4-(8-morpholino-2-(2-(quinolin-2-yl)vinyl)imidazo[1,2-b]pyridazin-3-yl)benzoic acid]
10 | 4 | 7 | 0 | 0 | 0.926 | – | – | – | CS(=O)(=O)NC(=O)c1ccc(-c2c(/C=C/c3ccc4ccccc4n3)nc3c(N4CCOCC4)ccnn23)cc1F [compound 134, (E)-2-Fluoro-N-(methylsulfonyl)-4-(8-morpholino-2-(2-(quinolin-2-yl)vinyl)imidazo[1,2-b]pyridazin-3-yl)benzamide]
11 | 2 | – | – | – | – | 0 | 0.106 | 0 | O=C(O)CCc1ccc(-c2c([C@H]3C[C@H](c4ccc5ccccc5n4)C3)nc3c(N4CCOCC4)ccnn23)cc1 [compound 169, 3-(4-(8-Morpholino-2-((1r,3r)-3-(quinolin-2-yl)cyclobutyl)imidazo[1,2-b]pyridazin-3-yl)phenyl)propanoic acid]
